The target of series [1] is T1, Acetylcholinesterase (Mus musculus) (UniProt P21836).
T1 sequence (whole entry): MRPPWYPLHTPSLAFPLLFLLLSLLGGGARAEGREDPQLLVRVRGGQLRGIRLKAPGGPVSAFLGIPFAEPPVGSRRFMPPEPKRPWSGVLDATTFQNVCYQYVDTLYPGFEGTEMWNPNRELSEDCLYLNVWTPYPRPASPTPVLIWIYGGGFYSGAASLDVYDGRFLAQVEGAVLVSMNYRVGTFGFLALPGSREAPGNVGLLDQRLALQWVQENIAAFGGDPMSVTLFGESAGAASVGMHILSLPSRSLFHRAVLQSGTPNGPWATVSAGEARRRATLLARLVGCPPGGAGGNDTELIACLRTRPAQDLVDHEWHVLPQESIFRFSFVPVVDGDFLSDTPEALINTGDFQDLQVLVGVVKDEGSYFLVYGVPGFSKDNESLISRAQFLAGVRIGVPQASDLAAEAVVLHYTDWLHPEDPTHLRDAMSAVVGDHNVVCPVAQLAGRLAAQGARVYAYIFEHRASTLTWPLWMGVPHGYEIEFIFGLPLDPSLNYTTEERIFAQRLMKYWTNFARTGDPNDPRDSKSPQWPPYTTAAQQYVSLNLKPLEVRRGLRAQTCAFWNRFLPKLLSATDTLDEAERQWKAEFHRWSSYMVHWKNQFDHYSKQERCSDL
The series can be described thus: Inhibition of […] iodide as substrate assessed as residual activity at 30 uM after 5 mins by Ellman's method relative to control.

Series [2] in a line: Metal chelating activity of the compound assessed as Fe2+ complex formation at 30 uM after 10 mins by UV-vis spectrometry. In kind it is physicochemical.
Series [3] deals with Amyloid-beta precursor protein (Homo sapiens) (UniProt P05067). The series can be described thus: Inhibition of human recombinant amyloid beta (1 to 42) self aggregation at 10 uM after 12 hrs by dot-blot assay.
Sequence of Amyloid-beta precursor protein (Homo sapiens) (P05067 whole entry): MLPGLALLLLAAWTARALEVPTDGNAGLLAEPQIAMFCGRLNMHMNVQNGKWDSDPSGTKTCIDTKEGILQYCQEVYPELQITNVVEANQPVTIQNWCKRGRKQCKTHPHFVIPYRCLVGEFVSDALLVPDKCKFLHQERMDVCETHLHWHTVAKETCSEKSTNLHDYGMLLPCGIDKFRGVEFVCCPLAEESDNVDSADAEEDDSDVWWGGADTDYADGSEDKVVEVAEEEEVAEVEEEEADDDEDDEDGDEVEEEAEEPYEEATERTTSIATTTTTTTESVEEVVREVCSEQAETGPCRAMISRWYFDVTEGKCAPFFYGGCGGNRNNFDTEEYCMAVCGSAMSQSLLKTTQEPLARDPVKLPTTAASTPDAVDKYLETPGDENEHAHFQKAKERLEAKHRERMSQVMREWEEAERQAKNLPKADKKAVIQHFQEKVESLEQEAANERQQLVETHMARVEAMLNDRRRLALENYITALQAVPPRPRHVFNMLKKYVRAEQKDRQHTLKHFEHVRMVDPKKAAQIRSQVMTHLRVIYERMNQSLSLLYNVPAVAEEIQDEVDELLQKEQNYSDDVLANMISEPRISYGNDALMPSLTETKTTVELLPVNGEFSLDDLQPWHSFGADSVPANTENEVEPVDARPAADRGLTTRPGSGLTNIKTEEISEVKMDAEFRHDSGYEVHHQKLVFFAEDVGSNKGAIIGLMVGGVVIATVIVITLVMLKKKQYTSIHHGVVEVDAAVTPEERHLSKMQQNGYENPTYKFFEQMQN
Series [4] can be described thus: Metal chelating activity of the compound assessed as Cu2+ complex formation at 30 uM after 10 mins by UV-vis spectrometry. Type of series: physicochemical.
The target of series [5] is T2, Cholinesterase (Homo sapiens, UniProt P06276).
T2 sequence (P06276 whole entry): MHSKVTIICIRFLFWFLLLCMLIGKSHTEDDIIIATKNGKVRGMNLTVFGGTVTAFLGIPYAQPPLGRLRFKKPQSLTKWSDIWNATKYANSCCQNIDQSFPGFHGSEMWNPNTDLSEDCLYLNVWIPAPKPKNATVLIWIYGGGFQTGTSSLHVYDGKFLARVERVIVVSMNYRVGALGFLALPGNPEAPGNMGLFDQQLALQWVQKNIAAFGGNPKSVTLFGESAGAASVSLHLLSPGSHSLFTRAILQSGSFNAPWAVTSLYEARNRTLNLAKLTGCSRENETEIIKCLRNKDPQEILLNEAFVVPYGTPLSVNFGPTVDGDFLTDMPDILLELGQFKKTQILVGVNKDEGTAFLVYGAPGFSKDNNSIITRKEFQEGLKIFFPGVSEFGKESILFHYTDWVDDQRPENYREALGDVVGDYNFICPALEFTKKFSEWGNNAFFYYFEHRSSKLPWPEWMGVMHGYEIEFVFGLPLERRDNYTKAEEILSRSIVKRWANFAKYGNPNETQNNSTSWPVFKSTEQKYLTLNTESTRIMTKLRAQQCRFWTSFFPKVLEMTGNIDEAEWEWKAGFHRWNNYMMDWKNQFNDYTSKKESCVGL
Description: Inhibition of human recombinant BChE using butyrylthiocholine iodide as substrate after 5 mins by Ellman's method
The nature of series [6]: Solubility of the compound at 30 uM. Type of series: physicochemical.
Series [7] has as its target T2, Cholinesterase. The series can be described thus: Inhibition of human recombinant BChE using butyrylthiocholine iodide as substrate assessed as residual activity at 30 uM after 5 mins by Ellman's method relative to control.
The nature of series [8]: Antioxidant activity assessed as DPPH radical scavenging activity. Type of series: physicochemical.
The nature of series [9]: Metal chelating activity of the compound assessed as Co2+ complex formation at 30 uM after 10 mins by UV-vis spectrometry. Type of series: physicochemical.
Series [10] in a line: Metal chelating activity of the compound assessed as Zn2+ complex formation at 30 uM after 10 mins by UV-vis spectrometry. In kind it is physicochemical.
Series [11] can be described thus: Metal chelating activity of the compound assessed as Mg2+ complex formation at 30 uM after 10 mins by UV-vis spectrometry. Type of series: physicochemical.
Series [12] is described as follows: Metal chelating activity of the compound assessed as Ca2+ complex formation at 30 uM after 10 mins by UV-vis spectrometry. In kind it is physicochemical.
Series [13] can be described thus: Binding affinity to Cu2+ using CuCl2 at 30 uM after 45 mins.
The nature of series [14]: Binding affinity to Cu2+ using CuCl2 at 30 uM by isothermal titration calorimetry analysis.

pEC50, pIC50, pKd: −log10 of the molar value. The source made the active and inactive calls. The calls are words filed in the database; no cut-off is given here.

From ChEMBL document CHEMBL3593240, “Structure-based development of nitroxoline derivatives as potential multifunctional anti-Alzheimer agents” (Bioorg Med Chem, 2015) come the findings set out here.

With `COCCN(CC1CCCN(C2Cc3ccccc3C2)C1)C(=O)c1ccc2ccccc2c1` (stereo not drawn), the inhibition result in series [1] is “inactive”.
As to `COCCN(CC1CCN(Cc2nc3ccccc3s2)CC1)C(=O)c1cc([N+](=O)[O-])c2cccnc2c1O`, the outcome in series [2], in [4], in series [9] and in [10] was Active. In addition, the inhibition in series [3] came out at 44.2%. On Cholinesterase [5], the pIC50 is 5.67. Further, in series [1], the inhibition result was “inactive”. In addition, in [6], the solubility result is listed as “soluble”. For the same compound, the Ratio at Cholinesterase [7] turned out to be 0.129. Besides, the negative logarithm of the EC50 (pEC50) in series [8] was 2.38.
For `O=C(NCC1CCCN(c2nc3ccccc3o2)C1)c1cc([N+](=O)[O-])c2cccnc2c1O` (stereo not drawn), the outcome in series [2], in series [4], in series [9] and in series [10] was Active. The inhibition in [3] was found to be 35.5%. Moreover, the inhibition result in [1] was “inactive”. Moreover, the solubility result in series [6] was “soluble”. The Ratio on Cholinesterase [7] turned out to be 0.914. Also, the negative logarithm of the EC50 (pEC50) in [8] is 3.06.
On to `COCCN(CC1CCN(Cc2nc3ccccc3o2)CC1)C(=O)c1cc([N+](=O)[O-])c2cccnc2c1O`, for which the Activity entry in [2] is given as “Active”; in series [4], “Active”; in [11], “Not Active”; in series [12], “Not Active”; in series [9] it was “Active”; in series [10] it was “Active”. Besides, the inhibition in series [3] came to 34.9%. Also, in series [1], the inhibition result was “inactive”. In addition, the solubility result in series [6] is given as “soluble”. Moreover, the Ratio on Cholinesterase [7] is 0.805. Further, the pEC50 in series [8] was 3.11.
As to `O=C(NCC1CCCN(C2Cc3ccccc3C2)C1)c1cc([N+](=O)[O-])c2cccnc2c1O` (stereo not drawn), the outcome in [2], in series [4], in series [9] and in [10] was Active. In [3], the inhibition came to 28.7%. In addition, the Ratio in [1] amounted to 0.641; on Cholinesterase [7], 0.747. Also, the solubility result in [6] was “soluble”. Besides, the negative-log EC50 (pEC50) in [8] was 3.28.
As to `COCCN(CC1CCCN(C2Cc3ccccc3C2)C1)C(=O)c1cc([N+](=O)[O-])c2cccnc2c1O` (stereo not drawn), the outcome in [13] was Active. Further, the Activity entry is reported as “Active” in series [2]; “Active” in series [4]; “Not Active” in series [11]; “Not Active” in series [12]; “Active” in series [9]; “Active” in series [10]. Further, the inhibition in series [3] was 20.1%. For the same compound, at Cholinesterase [5], the negative logarithm of the IC50 (pIC50) was 6.67. In addition, in series [1], the inhibition entry is “inactive”. In addition, in series [6], the solubility result is listed as “soluble”. For the same compound, the Ratio at Cholinesterase [7] stood at 0.014. The pEC50 in series [8] is 2.46. The negative logarithm of the Kd (pKd) in series [14] was 6.60.
Take `O=c1c(O)c(-c2ccc(O)c(O)c2)oc2cc(O)cc(O)c12` [QUERCETIN]: the negative-log EC50 (pEC50) in series [8] is 4.96.
Turning to `O=C(NCC1CCCN(c2nc3ccccc3s2)C1)c1cc([N+](=O)[O-])c2cccnc2c1O` (stereo not drawn), the result in series [2], in series [4], in series [9] and in series [10] was Active. For the same compound, the inhibition in series [3] was found to be 33.3%. The inhibition entry (in series [1]; at Cholinesterase [7]) was “inactive” each time. For the same compound, the solubility result in series [6] is listed as “soluble”. Besides, the pEC50 in [8] was 2.42.
Consider `O=C(NCC1CCCN(Cc2nc3ccccc3s2)C1)c1cc([N+](=O)[O-])c2cccnc2c1O` (stereo not drawn), for which the result in [2], in series [4], in series [9] and in series [10] was Active. Also, in series [3], the inhibition was 53.4%. The inhibition entry in series [1] was “inactive”. Further, the solubility result in [6] is recorded as “soluble”. The Ratio on Cholinesterase [7] worked out at 0.444. In addition, in series [8], the pEC50 was 2.88.
